According to patent US5750530A, “Pharmaceutical diketopiperazine compounds” (Xenova Limited, priority 1994, dated 1998):
Structures can show the parent of a compound that is named as a salt.

Molecular target: PAI-1 (Homo sapiens, UniProt P05121)
Assay: biochemical
Assay type: biochemical
Details: for IC50: PAI chromogenic substrate assay
Method: The present compounds have been tested in a PAI functional assay. In this assay, a compound is incubated with PAI-1 prior to addition to the tPA assay system. Inhibition of PAI-1 results in the production of plasmin from plasminogen. In turn, plasmin cleaves the chromogenic substrate S2251 (Kabi Vitrum) producing pNA (p-nitroaniline) which is detected spectrophotometrically at 405 nm (K. Nilsson et al, Fibrinolysis (1987) 1, 163-168).
The present compounds were tested in a PAI chromogenic substrate assay. In the assay (K. Nilsson, Fibrinolysis (1987) 1, 163-168) each compound was incubated with PAI-1 prior to addition to the tPA assay system. […] In turn, the plasmin cleaved the chromogenic substrate S2251 (Kabi-Vitrum) producing pNA (p-nitroaniline) which was detected spectrophotometrically at 405 nm.
The degrees of inhibition observed in the chromogenic substrate assay at various concentrations, or the IC50 values, for each compound are presented in Table 1.

PAI-1, sequence (P05121 24-402): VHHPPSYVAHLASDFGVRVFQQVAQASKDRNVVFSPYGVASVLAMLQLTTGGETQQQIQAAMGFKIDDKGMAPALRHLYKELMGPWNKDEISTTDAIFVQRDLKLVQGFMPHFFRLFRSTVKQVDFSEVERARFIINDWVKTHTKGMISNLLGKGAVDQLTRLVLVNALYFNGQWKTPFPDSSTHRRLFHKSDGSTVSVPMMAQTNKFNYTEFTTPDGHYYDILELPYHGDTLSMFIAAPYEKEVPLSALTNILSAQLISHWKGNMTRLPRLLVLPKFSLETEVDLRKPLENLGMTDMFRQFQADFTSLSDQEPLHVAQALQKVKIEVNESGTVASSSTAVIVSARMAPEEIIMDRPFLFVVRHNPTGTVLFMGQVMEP

Row | SMILES | IC50 [µM] | % Inhibition (20 μm) [%] | % Inhibition (5 μm) [%]
1 | CN(C)CCSc1ccc(/C=c2\[nH]c(=O)/c(=C/c3ccccc3Br)[nH]c2=O)s1 [Compound 5313.HCl, (3Z,6Z)-6-(2-Bromobenzylidene)-3-(5-(2-dimethylaminoethylthio)-2-thienyl)methylene-2,5-piperazinedione] | 20 | – | –
2 | COc1cccc(/C=c2\[nH]c(=O)/c(=C/c3ccc(SCCN(C)C)s3)[nH]c2=O)c1 [Compound 5314, (3Z,6Z)-3-(5-(2-Dimethylaminoethylthio)-2-thienyl)methylene-6-(3-methoxybenzylidene)-2,5-piperazinedione] | 3.5 | – | –
3 | COc1cccc(/C=c2\[nH]c(=O)/c(=C/c3ccc(SCCN(C)C)s3)[nH]c2=O)c1 [Compound 5314.HCl, (3Z,6Z)-3-(5-(2-Dimethylaminoethylthio)-2-thienyl)methylene-6-(3-methoxybenzylidene)-2,5-piperazinedione] | 9.5 | – | –
4 | CN(C)CCSc1ccc(/C=c2\[nH]c(=O)/c(=C/c3cccc(C(F)(F)F)c3)[nH]c2=O)s1 [Compound 5315, (3Z,6Z)-3-(5-(2-Dimethylaminoethylthio)-2-thienyl)methylene-6-(3-trifluoromethylbenzylidene)-2,5-piperazinedione] | 20 | – | –
5 | CN(C)CCSc1ccc(/C=c2\[nH]c(=O)/c(=C/c3cccc(C(F)(F)F)c3)[nH]c2=O)s1 [Compound 5315.HCl, (3Z,6Z)-3-(5-(2-Dimethylaminoethylthio)-2-thienyl)methylene-6-(3-trifluoromethylbenzylidene)-2,5-piperazinedione] | – | 10 | –
6 | CN(C)CCSc1ccc(/C=c2\[nH]c(=O)/c(=C/c3cccc([N+](=O)[O-])c3)[nH]c2=O)s1 [Compound 5316, (3Z,6Z)-3-(5-(2-Dimethylaminoethylthio)-2-thienyl)methylene-6-(3-nitrobenzylidene)-2,5-piperazinedione] | – | 10 | –
7 | CC(C)N(CCSc1ccc(/C=c2\[nH]c(=O)/c(=C/c3ccccc3)[nH]c2=O)s1)C(C)C [Compound 5399, (3Z,6Z)-6-Benzylidene-3-(5-(2-diisopropylaminoethylthio)-2-thienyl)methylene-2,5-piperazinedione] | – | 43 | 23
8 | CC(C)N(CCSc1ccc(/C=c2\[nH]c(=O)/c(=C/c3ccccc3)[nH]c2=O)s1)C(C)C [Compound 5399.HCl, (3Z,6Z)-6-Benzylidene-3-(5-(2-diisopropylaminoethylthio)-2-thienyl)methylene-2,5-piperazinedione] | – | 31 | 18
9 | CN(C)CCSc1ccc(/C=c2\[nH]c(=O)/c(=C/c3ccccc3)[nH]c2=O)cc1[N+](=O)[O-] [Compound 5400, (3Z,6Z)-6-Benzylidene-3-(4-(2-dimethylaminoethylthio)-3-nitrobenzylidene)-2,5-piperazinedione] | 4.5 | 60 | 61
10 | CN(C)CCSc1sc(/C=c2\[nH]c(=O)/c(=C/c3ccccc3)[nH]c2=O)cc1[N+](=O)[O-] [Compound 5403, (3Z,6Z)-6-Benzylidene-3-(5-(2-dimethylaminoethylthio)-4-nitro-2-thienyl)methylene-2,5-piperazinedione] | 20 | 52 | 26
11 | CN(C)CCSc1ccc(/C=c2\[nH]c(=O)/c(=C/c3cccc(C(F)(F)F)c3)[nH]c2=O)cc1 [Compound 5423, (3Z,6Z)-6-(4-(2-Dimethylaminoethylthio)benzylidene)-3-(3-trifluoromethylbenzylidene)-2,5-piperazinedione] | – | 11 | –
12 | CN(C)CCSc1ccc(/C=c2\[nH]c(=O)/c(=C/c3cccc(C(F)(F)F)c3)[nH]c2=O)cc1 [Compound 5423.HCl, (3Z,6Z)-6-(4-(2-Dimethylaminoethylthio)benzylidene)-3-(3-trifluoromethylbenzylidene)-2,5-piperazinedione] | 20 | 35 | 2

Further lines, results first:

Row | IC50 [µM] | % Inhibition (20 μm) [%] | % Inhibition (5 μm) [%] | SMILES
13 | – | 60 | 12 | CN(C)CCSc1sc(/C=c2\[nH]c(=O)/c(=C/c3ccccc3)[nH]c2=O)cc1[N+](=O)[O-] [Compound 5403.HCl, (3Z,6Z)-6-Benzylidene-3-(5-(2-dimethylaminoethylthio)-4-nitro-2-thienyl)methylene-2,5-piperazinedione]
14 | – | 21 | 3 | CN(C)CCSc1ccc(/C=c2\[nH]c(=O)/c(=C/c3cccc([N+](=O)[O-])c3)[nH]c2=O)cc1 [Compound 5422, (3Z,6Z)-6-(4-(2-Dimethylaminoethylthio)benzylidene)-3-(3-nitrobenzylidene)-2,5-piperazinedione]
15 | – | 28 | 5 | CN(C)CCSc1ccc(/C=c2\[nH]c(=O)/c(=C/c3cccc([N+](=O)[O-])c3)[nH]c2=O)cc1 [Compound 5422.HCl, (3Z,6Z)-6-(4-(2-Dimethylaminoethylthio)benzylidene)-3-(3-nitrobenzylidene)-2,5-piperazinedione]
16 | 13.7 | 23 | 6 | CN(C)CCSc1ccc(/C=c2\[nH]c(=O)/c(=C/c3ccc(N(C)C)cc3)[nH]c2=O)cc1 [Compound 5424, (3Z,6Z)-3-(4-Dimethylaminobenzylidene)-6-(4-(2-dimethylaminoethylthio)benzylidene)-2,5-piperazinedione]
17 | 15.7 | 45 | 8 | CN(C)CCSc1ccc(/C=c2\[nH]c(=O)/c(=C/c3ccc(N(C)C)cc3)[nH]c2=O)cc1 [Compound 5424.HCl, (3Z,6Z)-3-(4-Dimethylaminobenzylidene)-6-(4-(2-dimethylaminoethylthio)benzylidene)-2,5-piperazinedione]
18 | 3.7 | 57 | 37 | CN(C)CCSc1ccc(/C=c2\[nH]c(=O)/c(=C/c3cccc(Br)c3)[nH]c2=O)cc1 [Compound 5425, (3Z,6Z)-3-(3-Bromobenzylidene)-6-(4-(2-dimethylaminoethylthio)benzylidene)-2,5-piperazinedione]
19 | 2.2 | 47 | 56 | CN(C)CCSc1ccc(/C=c2\[nH]c(=O)/c(=C/c3cccc(Br)c3)[nH]c2=O)cc1 [Compound 5425.HCl, (3Z,6Z)-3-(3-Bromobenzylidene)-6-(4-(2-dimethylaminoethylthio)benzylidene)-2,5-piperazinedione]
20 | 5.7 | 52 | 25 | CSc1ccc(/C=c2\[nH]c(=O)/c(=C/c3ccc(SCCN(C)C)cc3)[nH]c2=O)cc1 [Compound 5426, (3Z,6Z)-3-(4-(2-Dimethylaminoethylthio)benzylidene)-6-(4-methylthiobenzyidene)-2,5-piperazinedione]
21 | 5.4 | 55 | 35 | CSc1ccc(/C=c2\[nH]c(=O)/c(=C/c3ccc(SCCN(C)C)cc3)[nH]c2=O)cc1 [Compound 5426.HCl, (3Z,6Z)-3-(4-(2-Dimethylaminoethylthio)benzylidene)-6-(4-methylthiobenzyidene)-2,5-piperazinedione]
22 | 20 | 41 | 8 | CN(C)CCSc1ccc(/C=c2\[nH]c(=O)/c(=C/c3ccc(Cl)cc3)[nH]c2=O)cc1 [Compound 5437, (3Z,6Z)-3-(4-Chlorobenzylidene)-6-(4-(2-dimethylaminoethylthio)benzylidene)-2,5-piperazinedione]
